# Target: T1, KKT23^2–348 (Trypanosoma brucei, UniProt Q38AU6)
# T1 construct: gene Tb10.70.0180; full-length recombinant protein (residues 2-348), E. coli, His-tag cut by TEV, monomer, calculated 39 kDa; strain printed for the cell lines only
# T1 sequence (Q38AU6 2-348): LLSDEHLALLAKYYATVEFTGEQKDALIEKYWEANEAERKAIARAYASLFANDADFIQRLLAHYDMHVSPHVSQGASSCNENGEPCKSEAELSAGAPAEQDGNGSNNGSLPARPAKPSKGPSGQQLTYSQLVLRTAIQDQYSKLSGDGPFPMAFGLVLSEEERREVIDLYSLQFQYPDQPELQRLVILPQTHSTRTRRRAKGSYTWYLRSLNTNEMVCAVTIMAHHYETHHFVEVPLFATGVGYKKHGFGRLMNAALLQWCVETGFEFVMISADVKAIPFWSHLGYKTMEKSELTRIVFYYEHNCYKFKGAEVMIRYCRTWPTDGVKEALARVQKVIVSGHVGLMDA
# Experiment: histone acetyltransferase assay, anti-acetyl-lysine immunoblot and mass spectrometry
# Format: biochemical
# Settings: co-substrate reconstituted T. brucei nucleosomes (H2A C-terminal tail); up to 200 uM acetyl-CoA; pH 8.0, 30 C, 1 h
compound,measurement,value
CC(=O)SCCNC(=O)CCNC(=O)[C@H](O)C(C)(C)COP(=O)(O)OP(=O)(O)OC[C@H]1O[C@@H](n2cnc3c(N)ncnc32)[C@H](O)[C@@H]1OP(=O)(O)O [acetyl coenzyme A],"histone acetyltransferase assay, anti-acetyl-lysine immunoblot and mass spectrom",recombinant KKT23 was incubated with acetyl-CoA and nucleosomes reconstituted using either T. brucei or H. sapiens
